Values joined by “and” are separate entries in the source; they are usually repeats but may differ in a detail not shown here. Identical values can stand only once.
Assays:
[1] = tested on: rabbits; experiment: McGinty test (agonist, test compound alone); format: in vivo, rabbit
Protocol: (§2) Progestational activity and antiprogestational activity were determined in rabbits by means of the McGinty test (test compound alone, procedure of McGinty et al., Endocrinology, 24:829-832 (1939)) or anti-McGinty test (test compound plus progesterone, procedure of Tamara et al., Jpn. J. Fertil. Steril. 24:48-81 (1979)). Results were scored according to McPhail (McPhail, J. Physiol., 83:146 (1934)).

[2] = tested on: rabbits; experiment: anti-McGinty test (antagonist, test compound plus progesterone); format: in vivo, rabbit; conditions: for McPhail Index, McGinty Assay (Antagonist): rabbit, in vivo
Protocol: as §2

[3] = molecular target: progestin receptor (hPR); experiment: progestin receptor binding; conditions: cytosol from human T-47D breast cells; [3H]-R5020; read-out: Receptor Binding Affinity hPR IC50
Description: However, the receptors were of human origin and a different radioligand was used. Thus, for progestin receptor binding the receptor was obtained in cytosol from human T-47D breast cells and [^3 H]-R5020 was used as the radioligand. Data are expressed as IC50 values, i.e., the concentration of compound that inhibits the radioligand binding by 50%.

[4] = tested on: Human T-47D breast cells; experiment: T-47D cell proliferation, agonist format; format: cell-based; conditions: T47D, 0.01 to 10 nM, maximum at any dose, read-out: Cell Proliferation Agonist maximum % Stim.
Protocol: (§1) Human T-47D breast cells grown in nutrient media were incubated with the standard progestin R5020 alone or with R5020 plus test compound and then assessed by standard procedures for proliferation using incorporation of [^3 H]-thymidine as the measurement. […] The maximum % inhibition (a measure of the efficacy of the compounds) is also given. In the agonist format of this assay the compounds were tested at concentrations ranging from 0.01 to 10 nM and the maximum % stimulation at any dose is listed in Table 2. […] However, the presence of a very polar hydroxyl group in the 17α-position greatly diminishes antiprogestational activity and this holds even when the OH is separated from the 17-carbon atom by a methylene group.

[5] = tested on: Human T-47D breast cells; experiment: T-47D cell proliferation, antagonist format (inhibition of 0.15 nM R5020-mediated proliferation); format: cell-based; conditions: T47D; for EC50: inhibition of 0.15 nM R5020-mediated proliferation, N.D. not detected; for Emax: maximum % inhibition, 0.15 nM R5020, read-out: Cell Proliferation Antagonist maximum % Inhib.
Protocol: as §1

SMILES | McPhail Index, McGinty Assay (Agonist), progesterone ([1]; progesterone control, printed under first dose column, own dose not stated) | McPhail Index, McGinty Assay (Antagonist), progesterone (Standard) ([2]; progesterone standard, printed under first dose column, own dose not stated) | IC50 [3] | Emax [4] | McPhail Index, McGinty Assay (Agonist) ([1]; dose 0.3 micrograms) | McPhail Index, McGinty Assay (Agonist) ([1]; dose 3 micrograms) | McPhail Index, McGinty Assay (Agonist) ([1]; dose 30 micrograms) | EC50 [5] | Emax [5] | McPhail Index, McGinty Assay (Antagonist) [2] | progestational activity, McGinty test ([1]; in words) | antiprogestational activity, anti-McGinty test ([2]; in words)
CC(=O)[C@H]1CC[C@H]2[C@@H]3CCC4=CC(=O)CC[C@]4(C)[C@H]3CC[C@]12C [Progesterone, reference compound] | 2.45 +/- 0.14 | 2.45 +/- 0.14 | 3.3 nM | – | – | – | – | – | – | – | – | –
CC(=O)[C@@]1(OC(=O)c2ccccc2)CC[C@H]2[C@@H]3CCC4=CC(=O)CCC4=C3[C@@H](c3ccc(N(C)C)cc3)C[C@@]21C [I 4-Me2 N H O H --O--CO--C6 H5 H, 11β-[4-(N,N-Dimethylamino)phenyl]-17α-benzoyloxy-19-norpregna-4,9-diene-3,20-dione] | – | – | 24 nM | 18% | 0 +/- 0 | 0 +/- 0 | 0 +/- 0 | 6.4 nM | 69% | – | – | –
CCC(=O)O[C@]1(C(C)=O)CC[C@H]2[C@@H]3CCC4=CC(=O)CCC4=C3[C@@H](c3ccc4c(ccn4C)c3)C[C@@]21C [11β-(1-Methylindol-5-yl)-17α-propionyloxy-19-norpregna-4,9-diene-3,20-dione] | – | – | 2.3 nM | 7% | 0 +/- 0 | 0 +/- 0 | 0 +/- 0 | 2.4 nM | 107% | – | – | –
CC(=O)O[C@]1(C(C)=O)CC[C@H]2[C@@H]3CCC4=CC(=O)CCC4=C3[C@@H](c3ccc4c(c3)CCN4C)C[C@@]21C [17α-Acetoxy-11β-(1-methyl-2,3-dihydroindol-5-yl)-19-norpregna-4,9-diene-3,20-dione] | – | – | 2 nM | 6% | 0.6 +/- 0.1 | 0.2 +/- 0.1 | 0.2 +/- 0.1 | 1.5 nM | 103% | – | – | –
COC[C@]1(C(C)=O)CC[C@H]2[C@@H]3CCC4=CC(=O)CCC4=C3[C@@H](c3ccc(N(C)C)cc3)C[C@@]21C [I 4-Me2 N H O H --CH2 OCH3 H, 11β-(4-(N,N-dimethylamino)phenyl)-17α-methoxymethyl-19-norpregna-4,9-diene-3,20-dione] | – | – | 3.2 nM | 12% | 1.3 +/- 0.5 | 1.8 +/- 0.6 | 1.3 +/- 0.8 | 0.3 nM | 106% | 3.2 +/- 0.1 and 1.7 +/- 0.8 and 1.7 +/- 0.3 | – | –
CC[C@]1(C(C)=O)CC[C@H]2[C@@H]3CCC4=CC(=O)CCC4=C3[C@@H](c3ccc(N(C)C)cc3)C[C@@]21C [I 4-Me2 N H O H C2 H5 H, 11β-[4-(N,N-dimethylamino)phenyl]-17α-ethyl-19-norpregna-4,9-diene-3,20-dione] | – | – | 0.6 nM | 8% | 0.2 +/- 0.1 | 0.3 +/- 0.2 | 0.3 +/- 0.26 | 0.3 nM | 110% | – | – | –
CC(=O)O[C@]1(C(C)=O)CC[C@H]2[C@@H]3CCC4=CC(=O)CCC4=C3[C@@H](c3ccc(N(C)C)nc3)C[C@@]21C [17α-Acetoxy-11β-[2-(N,N-dimethylamino)pyrid-5-yl]-19-norpregna-4,9-diene-3,20-dione] | – | – | 11 nM | 5% | 0 +/- 0 | 0 +/- 0 | 0 +/- 0 | 2.9 nM | 92% | – | – | –
CCC(=O)O[C@]1(C(C)=O)CC[C@H]2[C@@H]3CCC4=CC(=O)CCC4=C3[C@@H](c3ccc(N4CCCC4)cc3)C[C@@]21C [17α-Propionyloxy-11β-[4-(N-pyrrolidino)phenyl-19-norpregna-4,9-diene-3-20-dione] | – | – | 4.8 nM | -1% | 0 +/- 0 | 0 +/- 0 | 0.1 +/- 0.1 | 0.9 nM | 107% | – | – | –
CC(=O)[C@@]1(CO)CC[C@H]2[C@@H]3CCC4=CC(=O)CCC4=C3[C@@H](c3ccc(N(C)C)cc3)C[C@@]21C [I 4-Me2 N H O H --CH2 --OH H, 11β-(4-(N,N-dimethylamino)phenyl)-17α-hydroxymethyl-19-norpregna-4,9-diene-3,20-dione] | – | – | 43.6 nM | 11% | 0 +/- 0 | 0 +/- 0 | 0 +/- 0 | – | 23% | 2.9 +/- 0.5 and 2.8 +/- 0.2 and 2.7 +/- 0.2 | – | –
C#C[C@]1(C(C)=O)CC[C@H]2[C@@H]3CCC4=CC(=O)CCC4=C3[C@@H](c3ccc(N(C)C)cc3)C[C@@]21C [I 4-Me2 N H O H --CCH H, 11β-(4-(N,N-Dimethylamino)phenyl)-17α-ethynyl-19-norpregna-4,9-diene-3,20-dione] | – | – | 2.5 nM | 12% | 0.1 +/- 0.1 | 0.2 +/- 0.2 | 0.2 +/- 0.2 | 0.4 nM | 101% | – | – | –
COc1ccc([C@H]2C[C@@]3(C)[C@@H](CC[C@]3(OC(C)=O)C(C)=O)[C@@H]3CCC4=CC(=O)CCC4=C32)cc1 [I 4-CH3 O H O H --O--CO--CH3 H, 17α-Acetoxy-11β-(4-methoxyphenyl)-19-norpregna-4,9-diene-3,20-dione] | – | – | 0.8 nM | 2% | 1.5 +/- 0.2 | 1.5 +/- 0.6 | 1.5 +/- 0.7 | 0.3 nM | 119% | – | both agonist and antagonist properties | both agonist and antagonist properties
CCC(=O)O[C@]1(C(C)=O)CC[C@H]2[C@@H]3CCC4=CC(=O)CCC4=C3[C@@H](c3ccc(N(C)C)cc3)C[C@@]21C [I 4-Me2 N H O H --O--CO--C2 H5 H, 11β-[4-(N,N-dimethylamino)phenyl]-17α-propionyloxy-19-norpregna-4,9-diene-3,10-dione] | – | – | 1.3 nM | 4% | 0 +/- 0 | 0 +/- 0 | 0 +/- 0 | 0.4 nM | 110% | – | – | –
CC(=O)OC[C@]1(C(C)=O)CC[C@H]2[C@@H]3CCC4=CC(=O)CCC4=C3[C@@H](c3ccc(N(C)C)cc3)C[C@@]21C [I 4-Me2 N H O H CH2 --O--CO--CH3 H] | – | – | 10.6 nM | 20% | 0 +/- 0 | 0.6 +/- 0.2 | 1.0 +/- 0.1 | 8.9 nM | 92% | 3.4 +/- 0.1 and 2.6 +/- 0.2 and 2.0 +/- 0.2 | – | –
CC(=O)O[C@]1(C(C)=O)CC[C@H]2[C@@H]3CCC4=CC(=O)CCC4=C3[C@@H](c3ccc(N(C)C)c(F)c3)C[C@@]21C [I 4-Me2 N 3-F O H --O--CO--CH3 H, 17α-Acetoxy-11β-(4-N,N-Dimethylamino-3-fluorophenyl)-19-norpregna4,9-diene-3,20-dione] | – | – | 2.2 nM | 30% | 2.5 +/- 0.2 | 3.0 +/- 0.3 | 3.6 +/- 0.1 | 0.7 nM | 101% | 3.6 +/- 0.1 and 3.3 +/- 0.3 and 2.8 +/- 0.3 | – | –
CC(=O)[C@@]1(OC(=O)Cc2ccccc2)CC[C@H]2[C@@H]3CCC4=CC(=O)CCC4=C3[C@@H](c3ccc(N(C)C)cc3)C[C@@]21C [I 4-Me2 N H O H O--CO--CH2 C6 H5 H, 11β-[4-(N,N-Dimethylamino)phenyl]-17α-phenylacetoxy-19-norpregna-4,9-diene-3,20-dione] | – | – | 7.9 nM | 16% | – | – | – | 1.9 nM | 99% | – | – | –
COC(=O)[C@]1(C(C)=O)CC[C@H]2[C@@H]3CCC4=CC(=O)CCC4=C3[C@@H](c3ccc(N(C)C)cc3)C[C@@]21C [I 4-Me2 N H O H COOCH3 H, 17α-carbomethoxy-11β-(4-(N,N-dimethylamino)phenyl)-19-norpregna-4,9-diene-3,20-dione] | – | – | 0.7 nM | 24% | 0 +/- 0 | 0 +/- 0 | 0.07 +/- 0.07 | 0.4 nM | 92% | – | – | –
CCC(=O)O[C@]1(C(C)=O)CC[C@H]2[C@@H]3CCC4=CC(=O)CCC4=C3[C@@H](c3ccc(N4CCCCC4)cc3)C[C@@]21C [11β-(4-(N-piperidino)phenyl)-17α-propionyloxy-19-norpregna-4,9-diene-3,20-dione] | – | – | 2 nM | -16% | 0 +/- 0 | 0 +/- 0 | 0 +/- 0 | 1 nM | 111% | – | – | –

Source: US6020328A, “20-keto-11β-arylsteroids and their derivatives having agonist or antagonist hormonal properties” (Research Triangle Institute, priority 1998, dated 2000)
